# Results published in the NIST ThermoML archive (doi:10.1021/acs.jced.7b00654).
# ± gives the expanded uncertainty stated by the source.
# How the values were obtained:
# [1] = 96.7 kPa, Vibrating tube method
# [2] = xn = mol fraction of the nth substance listed; settings: 96.7 kPa, Liquid, Vibrating tube method
Structure (SMILES),"mass density ([2]; 303.15 K, x2 = 0)","mass density ([2]; 308.15 K, x2 = 0)","mass density ([2]; 313.15 K, x2 = 0)","mass density ([2]; 318.15 K, x2 = 0)","mass density ([2]; 323.15 K, x2 = 0)","mass density ([2]; 328.15 K, x2 = 0)","mass density ([2]; 333.15 K, x2 = 0)","mass density ([2]; 338.15 K, x2 = 0)","mass density ([2]; 343.15 K, x2 = 0)","mass density ([2]; 348.15 K, x2 = 0)","mass density ([2]; 353.15 K, x2 = 0)",other results
CCCCn1cc[n+](C)c1.[Cl-] [1-butyl-3-methylimidazolium chloride],,,,,,,,,,,,"mass density ([1]; 303.15 K, Metastable liquid): 1079.41 ± 2.3 kg/m3; mass density ([1]; 308.15 K, Metastable liquid): 1076.58 ± 2.3 kg/m3; mass density ([1]; 313.15 K, Metastable liquid): 1073.78 ± 2.3 kg/m3; mass density ([1]; 318.15 K, Metastable liquid): 1070.99 ± 2.3 kg/m3; mass density ([1]; 323.15 K, Metastable liquid): 1068.19 ± 2.3 kg/m3; mass density ([1]; 328.15 K, Metastable liquid): 1065.36 ± 2.3 kg/m3; mass density ([1]; 333.15 K, Metastable liquid): 1062.6 ± 2.3 kg/m3; mass density ([1]; 338.15 K, Metastable liquid): 1059.87 ± 2.3 kg/m3; mass density ([1]; 343.15 K, Liquid): 1057.15 ± 2.3 kg/m3; mass density ([1]; 348.15 K, Liquid): 1054.42 ± 2.3 kg/m3; mass density ([1]; 353.15 K, Liquid): 1051.69 ± 2.3 kg/m3"
CCCCn1cc[n+](C)c1.[Cl-] [1-butyl-3-methylimidazolium chloride] + c1ccncc1,,,,,,,,,,,,"mass density ([2]; 303.15 K, x1 = 1): 1079.41 ± 2.3 kg/m3; mass density ([2]; 308.15 K, x1 = 1): 1076.58 ± 2.3 kg/m3; mass density ([2]; 313.15 K, x1 = 1): 1073.78 ± 2.3 kg/m3; mass density ([2]; 318.15 K, x1 = 1): 1070.99 ± 2.3 kg/m3; mass density ([2]; 323.15 K, x1 = 1): 1068.19 ± 2.3 kg/m3; mass density ([2]; 328.15 K, x1 = 1): 1065.36 ± 2.3 kg/m3; mass density ([2]; 333.15 K, x1 = 1): 1062.6 ± 2.3 kg/m3; mass density ([2]; 338.15 K, x1 = 1): 1059.87 ± 2.3 kg/m3; mass density ([2]; 343.15 K, x1 = 1): 1057.15 ± 2.3 kg/m3; mass density ([2]; 348.15 K, x1 = 1): 1054.42 ± 2.3 kg/m3; mass density ([2]; 353.15 K, x1 = 1): 1051.69 ± 2.3 kg/m3"
"CC(=O)N(C)C [N,N-dimethylethanamide] + CCCCn1cc[n+](C)c1.[Cl-]",931.85 ± 2 kg/m3,927.26 ± 2 kg/m3,922.66 ± 2 kg/m3,918.06 ± 2 kg/m3,913.44 ± 1.9 kg/m3,908.81 ± 1.9 kg/m3,904.16 ± 1.9 kg/m3,899.53 ± 1.9 kg/m3,894.87 ± 1.9 kg/m3,890.19 ± 1.9 kg/m3,885.51 ± 1.9 kg/m3,
C[S+](C)[O-] [dimethyl sulfoxide] + CCCCn1cc[n+](C)c1.[Cl-],1090.29 ± 2.2 kg/m3,1085.28 ± 2.2 kg/m3,1080.3 ± 2.2 kg/m3,1075.31 ± 2.2 kg/m3,1070.32 ± 2.2 kg/m3,1065.33 ± 2.1 kg/m3,1060.34 ± 2.1 kg/m3,1055.34 ± 2.1 kg/m3,1050.35 ± 2.1 kg/m3,1045.34 ± 2.1 kg/m3,1040.33 ± 2.1 kg/m3,
CN(C)C=O [dimethylformamide] + CCCCn1cc[n+](C)c1.[Cl-],939.18 ± 1.9 kg/m3,934.41 ± 1.9 kg/m3,929.64 ± 1.9 kg/m3,924.86 ± 1.9 kg/m3,920.07 ± 1.9 kg/m3,915.26 ± 1.8 kg/m3,910.44 ± 1.8 kg/m3,905.6 ± 1.8 kg/m3,900.74 ± 1.8 kg/m3,895.87 ± 1.8 kg/m3,890.98 ± 1.8 kg/m3,
